Some results are limits rather than exact numbers.

The first assay has as its target T1, integrin alpha5beta1 (Homo sapiens, UniProt P05556+P08648).
T1 construct: The integrin alpha5beta1 extracellular domain Fc-fusion was expressed and purified; made in house
The experiment in a line: Alpha5beta1-Fibronectin binding assay (competitive ELISA). To be noted: inhibition of integrin binding to fibronectin; read-out: IC50 alpha5beta1 in nM. The protocol:
The optimal concentrations of integrin and ligand were selected from ELISA binding studies with variable concentrations of both to obtain optimal signal noise ratio for further studies. IC50 studies were performed with fixed concentration of ligand and integrin and a serial dilution of inhibitor. The plates were measured with SpectraMax Plus reader (Molecular Devices). The resulting inhibition curves were analyzed using SoftMaxPro 4.0 software, the turning point describes the IC50 value.
Fibronectin and Vitronectin were purchased from Sigma, fibrinogen from Calbiochem. (EMD Biosciences, Darmstadt, Germany) The integrin alpha5beta1 extracellular domain Fc-fusion was expressed and purified as described in (Coe, 2001, JBC, 276, 35854). Integrins alphavbeta3 and alphavbeta5 were purchased from Chemicon (Chemicon Europe, Germany) and alphaIIbbeta3 form Kordia (Kordia Life Science, Leiden, Netherlands)
Fibronectin was diluted with coating buffer (15 mM Na2CO3, 35 mM NaHCO3, pH9.6) and coated with 100 μL/well to Nunc-Immuno maxisorp plates (Nalge Nunc Europe Ltd) over night at 4° C. After discarding the coating solution plates were washed 3 times with buffer 1 ([…], pH7.6, 150 mM NaCl, 1 mM […], 1 mg/mL BSA) and blocked with 100 μL blocking buffer (3% BSA in PBS 0.1% Tween20) for 1 hour at room temperature. After washing the blocked plates (3 times) with buffer 1, integrin (50 μL) and either inhibitor (serial dilution in buffer 1) or buffer 1 (50 μL) were added to the wells and incubated for one hour at RT. Plates were then washed (3 times) with buffer 1 and incubated with 100 μL of anti-human-Fc-HRP antibody conjugate (Sigma-Aldrich, Taufkirchen, Germany) in buffer 1 for 1 hour at RT. After additional washing steps (3 times) with buffer 1 50 μL of HRP substrate solution TMB (Seramun, Germany) were added to the wells. Colour development was stopped after 3-5 minutes with 50 μL 1M H2SO4. The developed colour was measured at 450 nm and analyzed as described above.
On to `Cc1ccc(CNC(=O)N2C[C@H](OCC(=O)NC[C@H](NS(=O)(=O)c3c(C)cc(C)cc3C)C(=O)O)C[C@H]2CNc2ccccn2)cc1` [Compound 25, 3-{2-[1-(4-Methyl-benzylcarbamoyl)-5-(pyridin-2-ylaminomethyl)-pyrrolidin-3-yloxy]-acetylamino}-2-(2,4,6-trimethyl-benzenesulfonylamino)-propionic acid], for which the IC50 was 18.1 nM.

The assay is the same for the next values; noted with them: method of section 1.1; read-out: Group (binding activities to integrin alpha5beta1).
For the molecule `Cc1cc(C)c(S(=O)(=O)N[C@@H](CNC(=O)CO[C@@H]2C[C@@H](CNc3ccccn3)N(C(=O)CC(C)(C)C)C2)C(=O)O)c(C)c1` [Compound 31, 3-{2-[1-(3,3-Dimethyl-butyryl)-5-(pyridin-2-ylaminomethyl)-pyrrolidin-3-yloxy]-acetylamino}-2-(2,4,6-trimethyl-benzenesulfonylamino)-propionic acid], the IC50 was less than 10 nM.
The same measure, in the same setting: then `Cc1cccc(C)c1C(=O)N[C@@H](CNC(=O)CO[C@@H]1C[C@@H](CNc2ccccn2)N(C(=O)OCc2ccccc2)C1)C(=O)O` [Compound 92, 4-{[2-Carboxy-2-(2,6-dimethyl-benzoylamino)-ethylcarbamoyl]-methoxy}-2-(pyridin-2-ylaminomethyl)-pyrrolidine-1-carboxylic acid benzyl ester], with less than 10 nM.
In the case of `O=C(CO[C@@H]1C[C@@H](CNc2ccccn2)N(C(=O)OCc2ccccc2)C1)NC[C@H](NC(=O)c1ccccc1Cl)C(=O)O` [Compound 97, 4-{[2-Carboxy-2-(2-chloro-benzoylamino)-ethylcarbamoyl]-methoxy}-2-(pyridin-2-ylaminomethyl)-pyrrolidine-1-carboxylic acid benzyl ester], the IC50 was less than 10 nM.
`CCC(C)(C)C(=O)N[C@@H](CNC(=O)CO[C@@H]1C[C@@H](CNc2ccccn2)N(C(=O)OCc2ccccc2)C1)C(=O)O` [Compound 118, 4-{[2-Carboxy-2-(2,2-dimethyl-butyrylamino)-ethylcarbamoyl]-methoxy}-2-(pyridin-2-ylaminomethyl)-pyrrolidine-1-carboxylic acid benzyl ester]: the IC50 is less than 10 nM.
In the case of `CS(=O)(=O)NC(CNC(=O)COC1CC(CNc2ccccn2)N(C(=O)OCc2ccccc2)C1)C(=O)O` (stereo not shown) [Compound 69, 4-[(2-Carboxy-2-methanesulfonylamino-ethylcarbamoyl)-methoxy]-2-(pyridin-2-ylaminomethyl)-pyrrolidine-1-carboxylic acid benzyl ester], the IC50 is more than 500 nM.
On to `O=C(CO[C@@H]1C[C@@H](CNc2ccccn2)N(C(=O)OCc2ccccc2)C1)NC[C@H](NC(=O)C1CCCCC1)C(=O)O` [Compound 91, 4-{[2-Carboxy-2-(cyclohexanecarbonyl-amino)-ethylcarbamoyl]-methoxy}-2-(pyridin-2-ylaminomethyl)-pyrrolidine-1-carboxylic acid benzyl ester], for which the IC50 was less than 10 nM.
Consider `Cc1ccc(C[C@@H](CC(=O)O)NC(=O)CO[C@@H]2C[C@@H](CNc3ccccn3)N(C(=O)OCc3ccccc3)C2)cc1` [Compound 152, 4-[(1-Carboxymethyl-2-p-tolyl-ethylcarbamoyl)-methoxy]-2-(pyridin-2-ylaminomethyl)-pyrrolidine-1-carboxylic acid benzyl ester], for which the IC50 is more than 500 nM.
The same measure, in the same setting: for `COc1ccnc(NC[C@@H]2C[C@@H](OCC(=O)NC[C@H](NC(=O)C3(C)CCCCC3)C(=O)O)CN2C(=O)CC(C)(C)C)c1` [Compound 148, 3-(2-{1-(3,3-Dimethyl-butyryl)-5-[(4-methoxy-pyridin-2-ylamino)-methyl]-pyrrolidin-3-yloxy}-acetylamino)-2-[(1-methyl-cyclohexanecarbonyl)-amino]-propionic acid] the value was less than 10 nM.
Turning to `COc1cccc(OC)c1C(=O)N[C@@H](CNC(=O)CO[C@@H]1C[C@@H](CNc2ccccn2)N(C(=O)OCc2ccccc2)C1)C(=O)O` [Compound 90, 4-{[2-Carboxy-2-(2,6-dimethoxy-benzoylamino)-ethylcarbamoyl]-methoxy}-2-(pyridin-2-ylaminomethyl)-pyrrolidine-1-carboxylic acid benzyl ester], the IC50 was less than 10 nM.
`Cc1cc(C)c(S(=O)(=O)N[C@@H](CNC(=O)CO[C@@H]2C[C@@H](CNc3ccccn3)N(C(=O)OCC(C)C)C2)C(=O)O)c(C)c1` [Compound 41, 4-{[2-Carboxy-2-(2,4,6-trimethyl-benzenesulfonylamino)-ethylcarbamoyl]-methoxy}-2-(pyridin-2-ylaminomethyl)-pyrrolidine-1-carboxylic acid isobutyl ester]: the IC50 is less than 10 nM.
Still for that read-out and setting: for `O=C(O)C[C@H](Cc1ccccc1)NC(=O)CO[C@@H]1C[C@@H](CNc2ccccn2)N(C(=O)OCc2ccccc2)C1` [Compound 150, 4-[(1-Carboxymethyl-2-phenyl-ethylcarbamoyl)-methoxy]-2-(pyridin-2-ylaminomethyl)-pyrrolidine-1-carboxylic acid benzyl ester] the value was more than 500 nM; for `O=C(CO[C@@H]1C[C@@H](CNc2ccccn2)N(C(=O)OCc2ccccc2)C1)NC[C@H](NC(=O)CCCc1ccccc1)C(=O)O` [Compound 127, 4-{[2-Carboxy-2-(4-phenyl-butyrylamino)-ethylcarbamoyl]-methoxy}-2-(pyridin-2-ylaminomethyl)-pyrrolidine-1-carboxylic acid benzyl ester], 10 to 500 nM; for `O=C(CO[C@@H]1C[C@@H](CNc2ccccn2)N(C(=O)OCc2ccccc2)C1)NC[C@H](NC(=O)Nc1ccc(-c2ccccc2)cc1)C(=O)O` [Compound 80, 4-{[2-(3-Biphenyl-4-yl-ureido)-2-carboxy-ethylcarbamoyl]-methoxy}-2-(pyridin-2-ylaminomethyl)-pyrrolidine-1-carboxylic acid benzyl ester], 10 to 500 nM.
Turning to `Cc1cc(C)c(S(=O)(=O)N[C@@H](CNC(=O)CO[C@@H]2C[C@@H](CNc3ccccn3)N(C(=O)C(F)(F)C(F)(F)C(F)(F)C(F)(F)C(F)(F)C(F)(F)C(F)(F)F)C2)C(=O)O)c(C)c1` [Compound 63, 3-{2-[1-(2,2,3,3,4,4,5,5,6,6,7,7,8,8,8-Pentadecafluoro-octanoyl)-5-(pyridin-2-ylaminomethyl)-pyrrolidin-3-yloxy]-acetylamino}-2-(2,4,6-trimethyl-benzenesulfonylamino)-propionic acid], the IC50 was more than 500 nM.
Take `O=C(CO[C@@H]1C[C@@H](CNc2ccccn2)N(C(=O)OCc2ccccc2)C1)NC[C@H](NC(=O)c1cc(C(F)(F)F)cc(C(F)(F)F)c1)C(=O)O` [Compound 86, 4-{[2-(3,5-Bis-trifluoromethyl-benzoylamino)-2-carboxy-ethylcarbamoyl]-methoxy}-2-(pyridin-2-ylaminomethyl)-pyrrolidine-1-carboxylic acid benzyl ester]: the IC50 is more than 500 nM.
Turning to `CC(C)(C)C(=O)N[C@@H](CNC(=O)CO[C@@H]1C[C@@H](CNc2ccccn2)N(C(=O)OCc2ccccc2)C1)C(=O)O` [Compound 117, 4-{[2-Carboxy-2-(2,2-dimethyl-propionylamino)-ethylcarbamoyl]-methoxy}-2-(pyridin-2-ylaminomethyl)-pyrrolidine-1-carboxylic acid benzyl ester], the IC50 is less than 10 nM.
Consider `COc1cccc(CC(=O)N2C[C@H](OCC(=O)NC[C@H](NS(=O)(=O)c3c(C)cc(C)cc3C)C(=O)O)C[C@H]2CNc2ccccn2)c1` [Compound 36, 3-{2-[1-[2-(3-Methoxy-phenyl)-acetyl]-5-(pyridin-2-ylaminomethyl)-pyrrolidin-3-yloxy]-acetylamino}-2-(2,4,6-trimethyl-benzenesulfonylamino)-propionic acid], for which the IC50 is 10 to 500 nM.
Consider `O=C(CO[C@@H]1C[C@@H](CNc2ccccn2)N(C(=O)OCc2ccccc2)C1)NC[C@H](NC(=O)c1ccccc1-c1ccccc1)C(=O)O` [Compound 104, 4-({2-[(Biphenyl-2-carbonyl)-amino]-2-carboxy-ethylcarbamoyl}-methoxy)-2-(pyridin-2-ylaminomethyl)-pyrrolidine-1-carboxylic acid benzyl ester], for which the IC50 lay in the range of 10 to 500 nM.
With `Cc1cc(C)c(S(=O)(=O)N[C@@H](CNC(=O)CO[C@@H]2C[C@@H](CNc3cc[nH]n3)N(C(=O)OCc3ccccc3)C2)C(=O)O)c(C)c1` [Compound 135, 4-{[2-Carboxy-2-(2,4,6-trimethyl-benzenesulfonylamino)-ethylcarbamoyl]-methoxy}-2-[(1H-pyrazol-3-ylamino)-methyl]-pyrrolidine-1-carboxylic acid benzyl ester], the IC50 was more than 500 nM.
With `N[C@@H](CNC(=O)CO[C@@H]1C[C@@H](CNc2ccccn2)N(C(=O)OCc2ccccc2)C1)C(=O)O` [Compound 81, 4-[(2-Amino-2-carboxy-ethylcarbamoyl)-methoxy]-2-(pyridin-2-ylaminomethyl)-pyrrolidine-1-carboxylic acid benzyl ester], the IC50 is more than 500 nM.
With `Cc1ccc(CNC(=O)N2C[C@H](OCC(=O)NC[C@H](NS(=O)(=O)c3c(C)cc(C)cc3C)C(=O)O)C[C@H]2CNc2ccccn2)cc1` [Compound 25, 3-{2-[1-(4-Methyl-benzylcarbamoyl)-5-(pyridin-2-ylaminomethyl)-pyrrolidin-3-yloxy]-acetylamino}-2-(2,4,6-trimethyl-benzenesulfonylamino)-propionic acid], the IC50 was 10 to 500 nM.

The values are drawn from patent US8501787B2, “Compounds for the inhibition of angiogenesis and use thereof” (Shire Orphan Therapies GmbH, priority 2004, dated 2013).
